Measured values from US20240116985A1, “STAPLED PEPTIDES AND METHODS THEREOF” (priority 2020, published 2024).
Where two headings read alike, the source gives them in different places.

Key:
[1] = biological target: T1, beta-catenin/TCF4 engagement (Homo sapiens, UniProt P35222); assay: Nano-BRET target engagement assay (B-cat-Halo & TCF4-Luc in HEK293 cells); assay type: cell-based; settings: read-out: NanoBRET Abs IC50
T1 construct: expressed in transfected cells; host or cells: HEK293
T1 sequence (P35222 1-781): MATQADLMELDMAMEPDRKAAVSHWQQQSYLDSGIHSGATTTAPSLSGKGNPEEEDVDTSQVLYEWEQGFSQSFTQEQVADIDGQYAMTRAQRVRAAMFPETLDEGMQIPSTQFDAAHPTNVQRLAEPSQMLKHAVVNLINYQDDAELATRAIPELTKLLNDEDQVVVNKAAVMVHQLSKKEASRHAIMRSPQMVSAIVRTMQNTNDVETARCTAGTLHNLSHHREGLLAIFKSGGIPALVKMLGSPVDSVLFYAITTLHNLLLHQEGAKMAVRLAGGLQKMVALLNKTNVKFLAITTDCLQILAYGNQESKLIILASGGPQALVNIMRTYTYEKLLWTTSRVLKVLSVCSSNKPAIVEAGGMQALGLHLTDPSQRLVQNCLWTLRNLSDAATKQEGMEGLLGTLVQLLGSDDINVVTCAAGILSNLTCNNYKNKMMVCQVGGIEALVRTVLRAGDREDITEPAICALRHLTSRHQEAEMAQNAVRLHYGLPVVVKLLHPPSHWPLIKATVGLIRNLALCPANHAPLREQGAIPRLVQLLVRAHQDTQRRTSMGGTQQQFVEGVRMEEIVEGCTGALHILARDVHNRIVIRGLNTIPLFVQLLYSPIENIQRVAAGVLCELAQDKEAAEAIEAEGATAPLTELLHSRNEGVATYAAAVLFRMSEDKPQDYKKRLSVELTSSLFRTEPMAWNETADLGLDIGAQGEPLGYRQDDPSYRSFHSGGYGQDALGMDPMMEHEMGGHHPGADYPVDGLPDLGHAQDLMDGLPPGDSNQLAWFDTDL

[2] = biological target: T2, full-length beta-Catenin (Uniprot ID P35222) (Homo sapiens, UniProt P35222); assay: Fluorescence polarization IC50 (beta-catenin / 5FAM-TCF4 10-53 competition); assay type: binding; settings: fluorescence polarization; read-out: beta-Catenin FP IC50
T2 construct: 10 nM full-length beta-Catenin (Uniprot ID P35222)
T2 sequence (P35222 1-781): T1 sequence (P35222 1-781)

Row | SMILES | IC50 ([1]; absolute IC50) [µM] | IC50 [2] [µM] | IC50 [1] [µM]
1 | CC(=O)N1CC2CC1C(=O)N[C@@H](CC(=O)O)C(=O)N[C@@H](CC(C)(C)C)C(=O)NC1(CCCC=CCCCOC(=O)N3CC[C@@](C(=O)N[C@@H](Cc4ccccc4Cl)C(=O)N[C@@H](Cc4csc5ccccc45)C(=O)N[C@@H](CCC(N)=O)C(N)=O)(C3)NC(=O)[C@H]([C@@H](C)O)NC(=O)[C@H](Cc3ccccc3)NC(=O)[C@H](C)NC(=O)[C@H](C)NC(=O)[C@H](CN(CC(=O)O)CC(F)(F)F)NC(=O)[C@H](CC(=O)O)NC1=O)CCCC=CCCC(=O)O2 (stereo partly drawn) [I-1846, Ac-HyPEs5-Asp-Npg-B5-Asp-TfeGA-Ala-Ala-Phe-Thr-PyrS2-2C1F-BztA-Gln-NH2] | 29.8 | 0.038 | 
2 | CC(=O)N1CCC[C@]12CC=CCCCC1(CCCC=CCCCOC(=O)N3CC[C@@](C(=O)N[C@@H](Cc4ccsc4)C(=O)N[C@@H](Cc4csc5ccccc45)C(=O)N[C@@H](CCC(N)=O)C(N)=O)(C3)NC(=O)[C@H](CC(C)C)NC(=O)[C@H](Cc3ccccc3)NC(=O)[C@H](C)NC(=O)[C@H](C)NC(=O)[C@H](CCN(CC(=O)O)C(=O)c3ccccn3)NC(=O)[C@H](CC(=O)O)NC1=O)NC(=O)[C@H](CC(C)(C)C)NC(=O)[C@H](CC(=O)O)NC2=O (stereo partly drawn) [I-2247, Ac-PL3-Asp-Npg-B5-Asp-[Pic]GAbu-Ala-Ala-Phe-Leu-PyrS2-3Thi-BztA-Gln-NH2] | 5.9 | 0.008 | 
3 | CC(=O)N1CCC[C@]12CC=CCCCC1(CCCC=CCCCOC(=O)N3CC[C@@](C(=O)N[C@@H](Cc4ccccc4Cl)C(=O)N[C@@H](Cc4csc5ccccc45)C(=O)N[C@@H](CCC(N)=O)C(=O)N4CCC[C@H]4CO)(C3)NC(=O)[C@H](CC(C)C)NC(=O)[C@H](Cc3ccccc3)NC(=O)[C@H](C)NC(=O)[C@H](C)NC(=O)[C@H](Cc3cccc(C(=O)O)c3)NC(=O)[C@H](CC(=O)O)NC1=O)NC(=O)[C@H](CC(C)(C)C)NC(=O)[C@H](CC(=O)O)NC2=O (stereo partly drawn) [I-1675, Ac-PL3-Asp-Npg-B5-Asp-3COOHF-Ala-Ala-Phe-Leu-PyrS2-2C1F-BztA-Gln-Proo1] | 9.7 | 0.0185 | 
4 | CC(=O)N1CCC[C@]12CC=CCCCC1(CCCC=CCCCOC(=O)N3CC[C@@](C(=O)N[C@@H](Cc4ccsc4)C(=O)N[C@@H](Cc4csc5ccccc45)C(=O)N[C@@H](CC(C)C)C(N)=O)(C3)NC(=O)[C@H](CC(C)C)NC(=O)[C@H](Cc3ccccc3)NC(=O)[C@H](C)NC(=O)[C@H](CCC(N)=O)NC(=O)[C@H](Cc3cccc(C(=O)O)c3)NC(=O)[C@H](CC(=O)O)NC1=O)NC(=O)[C@H](CC(C)(C)C)NC(=O)[C@H](CC(=O)O)NC2=O (stereo partly drawn) [I-2056, Ac-PL3-Asp-Npg-B5-Asp-3COOHF-Gln-Ala-Phe-Leu-PyrS2-3Thi-BztA-Leu-NH2] |  | 0.016 | 6.5
5 | CCCC[C@@H]1NC(=O)[C@H](Cc2cccc(C(=O)O)c2)NC(=O)[C@H](CC(=O)O)NC(=O)C2(CCCC=CCCCOC(=O)N3CC[C@@](C(=O)N[C@@H](Cc4ccsc4)C(=O)N[C@@H](Cc4csc5ccccc45)C(=O)N[C@@H](C)C(N)=O)(C3)NC(=O)[C@H](CC(C)C)NC(=O)[C@H](Cc3ccccc3)NC(=O)[C@H](C)NC1=O)CCCC=CC[C@]1(CCCN1C(C)=O)C(=O)N[C@@H](CC(=O)O)C(=O)N[C@@H](CC(C)(C)C)C(=O)N2 (stereo partly drawn) [I-1919, Ac-PL3-Asp-Npg-B5-Asp-3COOHF-nLeu-Ala-Phe-Leu-PyrS2-3Thi-BztA-Ala-NH2] |  | 0.033 | 4.7
6 | COCCOCCOCCOCCC(=O)NCCCC[C@@H]1NC(=O)[C@H](CCC(N)=O)NC(=O)[C@H](CC(=O)O)NC(=O)C2(CCCC=CCCCOC(=O)N3CC[C@@](C(=O)N[C@@H](Cc4ccccc4)C(=O)N[C@@H](Cc4csc5ccccc45)C(=O)N[C@@H](CC(=O)N4CCOCC4)C(N)=O)(C3)NC(=O)[C@H](CC(C)C)NC(=O)[C@H](Cc3ccccc3)NC(=O)[C@H](C)NC1=O)CCCC=CC[C@]1(CCCN1C(C)=O)C(=O)N[C@@H](CC(N)=O)C(=O)N[C@@H](CC1CCCCC1)C(=O)N2 (stereo partly drawn) [I-2526, Ac-PL3-Asn-Cha-B5-Asp-Gln-[mPEG4]Lys-Ala-Phe-Leu-PyrS2-Phe-BztA-MorphAsn-NH2] | > 20 | 0.224 | 
